Laboratory results taken from ChEMBL document CHEMBL1201862, “PubChem BioAssay data set” (2004).
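Growth conditions: 96-well plates. Treatment: test compound, 48 hours, 5 concentrations. Analysis: linear interpolation between bracketing concentrations; unreached endpoints set to highest concentration. Abbreviation: GI50, concentration required for 50% inhibition of growth.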 Calls of active or inactive are those of the source. Cut-off read from the data, not from the text of the source: active = GI50 up to about 1.1 µM and inactive = higher.

What was measured:
Test in all cases: growth of human tumour cells (NCI), 48 h
786-0 = tested on: 786-0
A498 = tested on: A498
A549 = tested on: A549
ACHN = tested on: ACHN
CAKI-1 = tested on: CAKI-1
CCRF-CEM = tested on: CCRF-CEM
COLO 205 = tested on: COLO 205
DU-145 = tested on: DU-145
EKVX = tested on: EKVX
HCC 2998 = tested on: HCC 2998
HCT-116 = tested on: HCT-116
HCT-15 = tested on: HCT-15
HL-60 = tested on: HL-60
HOP-62 = tested on: HOP-62
HOP-92 = tested on: HOP-92
HT-29 = tested on: HT-29
Hs-578T = tested on: Hs-578T
IGROV-1 = tested on: IGROV-1
K562 = tested on: K562
KM12 = tested on: KM12
LOX IMVI = tested on: LOX IMVI
M14 = tested on: M14
MCF7 = tested on: MCF7
MDA-MB-231 = tested on: MDA-MB-231
MDA-MB-435 = tested on: MDA-MB-435
MDA-N = tested on: MDA-N
MOLT-4 = tested on: MOLT-4
Malme-3M = tested on: Malme-3M
NCI-H226 = tested on: NCI-H226
NCI-H23 = tested on: NCI-H23
NCI-H460 = tested on: NCI-H460
NCI-H522 = tested on: NCI-H522
NCI/ADR-RES = tested on: NCI/ADR-RES
OVCAR-3 = tested on: OVCAR-3
OVCAR-4 = tested on: OVCAR-4
OVCAR-5 = tested on: OVCAR-5
OVCAR-8 = tested on: OVCAR-8
PC-3 = tested on: PC-3
RPMI-8226 = tested on: RPMI-8226
RXF 393 = tested on: RXF 393
SF-268 = tested on: SF-268
SF-295 = tested on: SF-295
SF-539 = tested on: SF-539
SK-MEL-28 = tested on: SK-MEL-28
SK-MEL-2 = tested on: SK-MEL-2
SK-MEL-5 = tested on: SK-MEL-5
SK-OV-3 = tested on: SK-OV-3
SN12C = tested on: SN12C
SNB-19 = tested on: SNB-19
SNB-75 = tested on: SNB-75
SR = tested on: SR
SW-620 = tested on: SW-620
T47D = tested on: T47D
TK-10 = tested on: TK-10
U-251 = tested on: U-251
UACC-257 = tested on: UACC-257
UACC-62 = tested on: UACC-62
UO-31 = tested on: UO-31

CCNc1cc2c3c(c1)CCCN3CCC2
GI50 (786-0): 9.66 µM (inactive)
GI50 (A498): 23.3 µM (inactive)
GI50 (A549): 17.9 µM (inactive)
GI50 (ACHN): 19.6 µM (inactive)
GI50 (CAKI-1): 31.6 µM (inactive)
GI50 (CCRF-CEM): 2.38 µM (inactive)
GI50 (COLO 205): 12.1 µM (inactive)
GI50 (DU-145): 28.1 µM (inactive)
GI50 (EKVX): 4.03 µM (inactive)
GI50 (HCC 2998): 33 µM (inactive)
GI50 (HCT-116): 6.67 µM (inactive)
GI50 (HCT-15): 19.6 µM
GI50 (HL-60): 11.8 µM (inactive)
GI50 (HOP-62): 14.6 µM (inactive)
GI50 (HOP-92): 12.6 µM (inactive)
GI50 (HT-29): 6.78 µM (inactive)
GI50 (Hs-578T): 25.6 µM (inactive)
GI50 (IGROV-1): 15.6 µM (inactive)
GI50 (K562): 4.01 µM (inactive)
GI50 (KM12): 15.7 µM (inactive)
GI50 (LOX IMVI): 3.1 µM (inactive)
GI50 (M14): 26.4 µM (inactive)
GI50 (MCF7): 40.7 µM (inactive)
GI50 (MDA-MB-231): 6.93 µM (inactive)
GI50 (MDA-MB-435): 3.44 µM (inactive)
GI50 (MDA-N): 3.1 µM (inactive)
GI50 (MOLT-4): 16.9 µM (inactive)
GI50 (Malme-3M): 19.3 µM (inactive)
GI50 (NCI-H226): 20.4 µM (inactive)
GI50 (NCI-H23): 6.31 µM (inactive)
GI50 (NCI-H460): 15.1 µM (inactive)
GI50 (NCI-H522): 21 µM (inactive)
GI50 (NCI/ADR-RES): 21 µM (inactive)
GI50 (OVCAR-3): 2.32 µM (inactive)
GI50 (OVCAR-4): 13 µM (inactive)
GI50 (OVCAR-5): 21.6 µM (inactive)
GI50 (OVCAR-8): 21.2 µM (inactive)
GI50 (PC-3): 16.7 µM (inactive)
GI50 (RPMI-8226): 4.46 µM (inactive)
GI50 (RXF 393): 72.8 µM (inactive)
GI50 (SF-268): 16.9 µM (inactive)
GI50 (SF-295): 18.2 µM (inactive)
GI50 (SF-539): 20.9 µM (inactive)
GI50 (SK-MEL-28): 31.3 µM (inactive)
GI50 (SK-MEL-2): 15.3 µM (inactive)
GI50 (SK-MEL-5): 13.7 µM (inactive)
GI50 (SK-OV-3): 20 µM (inactive)
GI50 (SN12C): 2.87 µM (inactive)
GI50 (SNB-19): 16 µM (inactive)
GI50 (SNB-75): 18.1 µM (inactive)
GI50 (SR): 4.22 µM (inactive)
GI50 (SW-620): 21.3 µM (inactive)
GI50 (T47D): 18.1 µM (inactive)
GI50 (TK-10): 31.8 µM (inactive)
GI50 (U-251): 12.3 µM (inactive)
GI50 (UACC-257): 19.7 µM (inactive)
GI50 (UACC-62): 17.7 µM (inactive)
GI50 (UO-31): 41.9 µM (inactive)

CN(C)c1cccc(NC2=NCCO2)c1
GI50 (786-0): 46.6 µM (inactive)
GI50 (A498): 74.5 µM (inactive)
GI50 (A549): > 100 µM (inactive)
GI50 (ACHN): 90.4 µM (inactive)
GI50 (CAKI-1): > 100 µM (inactive)
GI50 (CCRF-CEM): 33 µM (inactive)
GI50 (COLO 205): 20.6 µM (inactive)
GI50 (DU-145): > 100 µM (inactive)
GI50 (EKVX): 78.5 µM (inactive)
GI50 (HCC 2998): 89.9 µM (inactive)
GI50 (HCT-116): 35.9 µM (inactive)
GI50 (HCT-15): 45.1 µM
GI50 (HL-60): 23.1 µM (inactive)
GI50 (HOP-62): 81.1 µM (inactive)
GI50 (HOP-92): 12.2 µM (inactive)
GI50 (HT-29): 19.2 µM (inactive)
GI50 (Hs-578T): 43.6 µM (inactive)
GI50 (IGROV-1): > 100 µM (inactive)
GI50 (K562): 30.8 µM (inactive)
GI50 (KM12): 40.5 µM (inactive)
GI50 (LOX IMVI): 31.9 µM (inactive)
GI50 (M14): 37.5 µM (inactive)
GI50 (MCF7): 50.5 µM (inactive)
GI50 (MDA-MB-231): 51.4 µM (inactive)
GI50 (MDA-MB-435): 19.8 µM (inactive)
GI50 (MDA-N): 17.5 µM (inactive)
GI50 (MOLT-4): 46.7 µM (inactive)
GI50 (Malme-3M): 33.9 µM (inactive)
GI50 (NCI-H226): 47.2 µM (inactive)
GI50 (NCI-H23): 23.6 µM (inactive)
GI50 (NCI-H460): 32.4 µM (inactive)
GI50 (NCI-H522): 80.2 µM (inactive)
GI50 (NCI/ADR-RES): 39.7 µM (inactive)
GI50 (OVCAR-3): 59.4 µM (inactive)
GI50 (OVCAR-4): > 100 µM (inactive)
GI50 (OVCAR-5): > 100 µM (inactive)
GI50 (OVCAR-8): 66.8 µM (inactive)
GI50 (PC-3): 31 µM (inactive)
GI50 (RPMI-8226): 65.5 µM (inactive)
GI50 (RXF 393): > 100 µM (inactive)
GI50 (SF-268): 92 µM (inactive)
GI50 (SF-295): > 100 µM (inactive)
GI50 (SF-539): 46.6 µM (inactive)
GI50 (SK-MEL-28): 42.8 µM (inactive)
GI50 (SK-MEL-2): 14.9 µM (inactive)
GI50 (SK-MEL-5): 43.6 µM (inactive)
GI50 (SN12C): 52.5 µM (inactive)
GI50 (SNB-19): 52.8 µM (inactive)
GI50 (SNB-75): 41.2 µM (inactive)
GI50 (SR): 30.3 µM (inactive)
GI50 (SW-620): 57.7 µM (inactive)
GI50 (T47D): 69.2 µM (inactive)
GI50 (TK-10): > 100 µM (inactive)
GI50 (U-251): 83.8 µM (inactive)
GI50 (UACC-257): 48.9 µM (inactive)
GI50 (UACC-62): 50.7 µM (inactive)
GI50 (UO-31): > 100 µM (inactive)
